Assay [1] has as its target human Melanocortin-4 receptor (MC4R) (Homo sapiens (Human), UniProt P32245). The experiment in a line: Functional in vitro MC4R antagonist potency assay (cAMP HTRF in CHO cells, αMSH EC80 stimulation). The class given is cell-based. As for the experimental part:
The functional in vitro antagonist potency for test compounds was determined by monitoring intracellular cyclic adenosine monophosphate (cAMP) levels in Chinese hamster ovary (CHO—) cells stably expressing the human Melanocortin-4 receptor (MC4R). […] The activated Ga subunit can couple to downstream effectors to regulate the levels of second messengers or cAMP within the cell. Thereby, determination of intracellular cAMP levels allows for pharmacological characterization. Intracellular cAMP levels are quantitated using a homogenous assay utilizing the Homogeneous Time-Resolved Fluorescence (HTRF) technology from CisBio. The method is a competitive immunoassay between native cAMP produced by cells and the cAMP labelled with the acceptor dye, d2. The two entities then compete for binding to a monoclonal anti-cAMP antibody labeled with cryptate. The specific signal is inversely proportional to the concentration of cAMP in the cells.
Test compounds were solubilized to 30 mM in 100% dimethyl sulfoxide (DMSO) and stored. […]
(95% O2: 5% CO2) overnight, with micro-clime lids (Labcyte, Cat No. LLS-0310). […] Intracellular cAMP levels were quantified as per Cisbio's protocol (5 uL of D2 and then 5 uL Cryptate, incubated for 1-2 hours at room temperature).
Data expressed as nM cAMP were then normalized to control wells using Activity Base (IDBS). […]
Background: In TR-FRET formats the signal depends on donor and acceptor labels being close together.

The target of assay [2] is α-melanocyte-stimulating hormone receptor (hMC4R) (Homo sapiens (Human), UniProt P32245). Description: In vitro binding affinity assay using hMC4R (radioligand competition binding, [125I]-(Nle4, D-Phe7)-α-MSH). Particulars: geometric mean, read-out: Ki (nM) geometric. Summed up:
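Membranes from CHO cells stably expressing hMC4R (2 μg/well) incubated 2 h RT with [125I]-NDP-α-MSH and compound (300 nM-0.01 nM, 1% DMSO); 2 μM α-MSH defined nonspecific binding. Filtration and scintillation counting; Ki from IC50 via Cheng-Prusoff.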
Background: In a radioligand displacement assay an active substance lowers the binding of a labelled ligand.

Where two headings read alike, the source gives them in different places.

α-melanocyte-stimulating hormone receptor (hMC4R), sequence (P32245 whole entry): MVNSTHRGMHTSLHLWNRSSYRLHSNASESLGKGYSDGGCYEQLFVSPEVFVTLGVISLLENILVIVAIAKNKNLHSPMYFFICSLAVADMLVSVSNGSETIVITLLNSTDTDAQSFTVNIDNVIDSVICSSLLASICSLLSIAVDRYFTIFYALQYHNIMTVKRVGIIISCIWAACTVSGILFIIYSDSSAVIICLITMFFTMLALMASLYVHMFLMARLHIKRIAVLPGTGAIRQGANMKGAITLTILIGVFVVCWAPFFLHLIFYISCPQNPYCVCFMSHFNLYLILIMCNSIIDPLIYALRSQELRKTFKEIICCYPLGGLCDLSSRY
human Melanocortin-4 receptor (MC4R), sequence (P32245 whole entry): as above

One may read the Kb as the equilibrium dissociation constant of an antagonist, usually derived from a functional assay. For `COc1cc([C@@H](C)C(=O)N2CC[C@@]3(CCc4cc(Cl)c(C)nc4N3)C2)c(F)cn1` (single isomer, unassigned) [Example 103], the Kb in assay [1] (cAMP HTRF in CHO cells expressing human MC4R, 200 nM αMSH (EC80), Kb by Leff-Dougall equation, geometric mean) was greater than 92 nM.
What is called Ki is a dissociation constant, usually derived from enzyme kinetics or from competition with a known ligand. On to `COc1cc([C@@H](C)C(=O)N2CC[C@@]3(CCc4cc(-c5cnccn5)c(C)nc4N3)C2)c(F)cn1` [Example 142, (2R)-2-(5-fluoro-2-methoxypyridin-4-yl)-1-[(2S)-7-methyl-6-(pyrazin-2-yl)-3,4-dihydro-1H-spiro[1,8-naphthyridine-2,3′-pyrrolidin]-1′-yl]propan-1-one], for which, in assay [2], the inhibition constant Ki was 1.8 nM. Further, the Kb in assay [1] (read-out: Kb (nM) Antagonist geometric) turned out to be 3.6 nM.
Turning to `COc1cc([C@@H](C)C(=O)N2CC[C@@]3(CCc4cc(-c5ccc(C(F)F)cn5)c(C)nc4N3)C2)c(F)cn1` [Example 179, (2R)-1-{(2S)-6-[5-(difluoromethyl)pyridin-2-yl]-7-methyl-3,4-dihydro-1H-spiro[1,8-naphthyridine-2,3′-pyrrolidin]-1′-yl}-2-(5-fluoro-2-methoxypyridin-4-yl)propan-1-one], the inhibitory constant (Ki) in assay [2] came out at 21 nM.
As for `COc1cc([C@@H](C)C(=O)N2CC[C@@]3(CCc4cc(-c5ccc(OC(F)(F)F)cn5)c(C)nc4N3)C2)c(F)cn1` [Example 180, (2R)-2-(5-fluoro-2-methoxypyridin-4-yl)-1-{(2S)-7-methyl-6-[5-(trifluoromethoxy)pyridin-2-yl]-3,4-dihydro-1H-spiro[1,8-naphthyridine-2,3′-pyrrolidin]-1′-yl}propan-1-one], in assay [2], the Ki was found to be 21 nM.
As for `COc1cc([C@@H](C)C(=O)N2CC[C@@]3(CCc4cc(-c5cccc(C(F)F)n5)c(C)nc4N3)C2)c(F)cn1` [Example 181, (2R)-1-{(2S)-6-[6-(difluoromethyl)pyridin-2-yl)-7-methyl-3,4-dihydro-1H-spiro[1,8-naphthyridine-2,3′-pyrrolidin]-1′-yl}-2-(5-fluoro-2-methoxypyridin-4-yl)propan-1-one], the Ki in assay [2] was found to be 2.4 nM.
Still for that read-out and setting: for `COc1cc([C@@H](C)C(=O)N2CC[C@@]3(CCc4cc(-c5nc(C(F)(F)F)cs5)c(C)nc4N3)C2)c(F)cn1` [Example 182, (2R)-2-(5-fluoro-2-methoxypyridin-4-yl)-1-{(2S)-7-methyl-6-[4-(trifluoromethyl)-1,3-thiazol-2-yl]-3,4-dihydro-1H-spiro[1,8-naphthyridine-2,3′-pyrrolidin]-1′-yl}propan-1-one] the value was 12 nM; for `COc1cc([C@@H](C)C(=O)N2CC[C@@]3(CCc4cc(-c5cc(C)nc(C(C)C)n5)c(C)nc4N3)C2)c(F)cn1` [Example 183, (2R)-2-(5-fluoro-2-methoxypyridin-4-yl)-1-{(2S)-7-methyl-6-[6-methyl-2-(propan-2-yl)pyrimidin-4-yl]-3,4-dihydro-1H-spiro[1,8-naphthyridine-2,3′-pyrrolidin]-1′-yl}propan-1-one], 4 nM; for `COc1cc([C@@H](C)C(=O)N2CC[C@@]3(CCc4cc(-c5nc(C)cc(C)n5)c(C)nc4N3)C2)c(F)cn1` [Example 184, (2R)-1-[(2S)-6-(4,6-dimethylpyrimidin-2-yl)-7-methyl-3,4-dihydro-1H-spiro[1,8-naphthyridine-2,3′-pyrrolidin]-1′-yl]-2-(5-fluoro-2-methoxypyridin-4-yl)propan-1-one], 6.3 nM.
As for `COc1cc([C@@H](C)C(=O)N2CC[C@@]3(CCc4cc(-c5ccc(C6CC6)cn5)c(C)nc4N3)C2)c(F)cn1` [Example 186, (2R)-1-[(2S)-6-(5-cyclopropylpyridin-2-yl)-7-methyl-3,4-dihydro-1H-spiro[1,8-naphthyridine-2,3′-pyrrolidin]-1′-yl]-2-(5-fluoro-2-methoxypyridin-4-yl)propan-1-one], the Ki in assay [2] came to 19 nM.
With `COc1cc([C@@H](C)C(=O)N2CC[C@@]3(CCc4cc(-c5nc(N6CCOCC6)n(C)n5)c(C)nc4N3)C2)c(F)cn1` [Example 187, (2R)-2-(5-fluoro-2-methoxypyridin-4-yl)-1-{(2S)-7-methyl-6-[1-methyl-5-(morpholin-4-yl)-1H-1,2,4-triazol-3-yl]-3,4-dihydro-1H-spiro[1,8-naphthyridine-2,3′-pyrrolidin]-1′-yl}propan-1-one], in assay [2], the inhibitory constant (Ki) is 5.5 nM.
Regarding `COc1cc([C@@H](C)C(=O)N2CC[C@@]3(CCc4cc(-c5nc(C)n(C(F)F)n5)c(C)nc4N3)C2)c(F)cn1` [Example 188, (2R)-1-{(2S)-6-[1-(difluoromethyl)-5-methyl-1H-1,2,4-triazol-3-yl]-7-methyl-3,4-dihydro-1H-spiro[1,8-naphthyridine-2,3′-pyrrolidin]-1′-yl}-2-(5-fluoro-2-methoxypyridin-4-yl)propan-1-one], the inhibition constant Ki in assay [2] is 0.41 nM.
For the compound `COc1cc([C@@H](C)C(=O)N2CC[C@@]3(CCc4cc(-c5nc(C(F)F)n(C6CC6)n5)c(C)nc4N3)C2)c(F)cn1` [Example 189, (2R)-1-{(2S)-6-[1-cyclopropyl-5-(difluoromethyl)-1H-1,2,4-triazol-3-yl]-7-methyl-3,4-dihydro-1H-spiro[1,8-naphthyridine-2,3′-pyrrolidin]-1′-yl}-2-(5-fluoro-2-methoxypyridin-4-yl)propan-1-one], in assay [2], the Ki was 1.3 nM.
Regarding `COc1cc([C@@H](C)C(=O)N2CC[C@@]3(CCc4cc(-c5ccnc(N6CCOCC6)n5)c(C)nc4N3)C2)c(F)cn1` [Example 196, (2R)-2-(5-fluoro-2-methoxypyridin-4-yl)-1-{(2S)-7-methyl-6-[2-(morpholin-4-yl)pyrimidin-4-yl]-3,4-dihydro-1H-spiro[1,8-naphthyridine-2,3′-pyrrolidin]-1′-yl}propan-1-one], in assay [2], the inhibitory constant (Ki) is 8.1 nM.
As for `COc1cc([C@@H](C)C(=O)N2CC[C@@]3(CCc4cc(-c5cccc(OC(F)F)n5)c(C)nc4N3)C2)c(F)cn1` [Example 198, (2R)-1-{(2S)-6-[6-(difluoromethoxy)pyridin-2-yl]-7-methyl-3,4-dihydro-1H-spiro[1,8-naphthyridine-2,3′-pyrrolidin]-1′-yl}-2-(5-fluoro-2-methoxypyridin-4-yl)propan-1-one], in assay [2], the Ki stood at 2.5 nM.
For the compound `COc1cc([C@@H](C)C(=O)N2CC[C@@]3(CCc4cc(-c5ccc(C6CC6)nn5)c(C)nc4N3)C2)c(F)cn1` [Example 199, (2R)-1-[(2S)-6-(6-cyclopropylpyridazin-3-yl)-7-methyl-3,4-dihydro-1H-spiro[1,8-naphthyridine-2,3′-pyrrolidin]-1′-yl]-2-(5-fluoro-2-methoxypyridin-4-yl)propan-1-one], in assay [2], the Ki worked out at 15 nM.
Take `COc1cc([C@@H](C)C(=O)N2CC[C@@]3(CCc4cc(-c5nccc(C(F)F)n5)c(C)nc4N3)C2)c(F)cn1` [Example 200, (2R)-1-{(2S)-6-[4-(difluoromethyl)pyrimidin-2-yl]-7-methyl-3,4-dihydro-1H-spiro[1,8-naphthyridine-2,3′-pyrrolidin]-1′-yl}-2-(5-fluoro-2-methoxypyridin-4-yl)propan-1-one]: the Ki in assay [2] amounted to 0.82 nM.
In the case of `COc1cc([C@@H](C)C(=O)N2CC[C@@]3(CCc4cc(-c5ncc(C(F)(F)F)s5)c(C)nc4N3)C2)c(F)cn1` [Example 201, (2R)-2-(5-fluoro-2-methoxypyridin-4-yl)-1-{(2S)-7-methyl-6-[5-(trifluoromethyl)-1,3-thiazol-2-yl]-3,4-dihydro-1H-spiro[1,8-naphthyridine-2,3′-pyrrolidin]-1′-yl}propan-1-one], in assay [2], the inhibition constant (Ki) amounted to 110 nM.

These data come from US20250084084A1, “Crystalline form of (2R)-2-(5-fluoro-2-methoxypyridin-4-yl)-1-[(2S)-7-methyl-6-(pyrimidin-2-yl)-3,4-dihydro-1H-spiro[1,8-naphthyridine-2,3-pyrrolidin]-1-yl]propan-1-one” (Pfizer Inc., priority 2020, published 2025).
